Source: US8735437B2, “Imidazolidine carboxamide derivatives as lipase and phospholipase inhibitors” (Sanofi, priority 2007, dated 2014)

Target: T1, endothelial lipase (EL) (Homo sapiens, UniProt Q9Y5X9)
T1 construct: made in house; host or cells: recombinant cell lines (CHO, HEK293); concentrated conditioned medium used as enzyme solution
T1 sequence (Q9Y5X9 21-500): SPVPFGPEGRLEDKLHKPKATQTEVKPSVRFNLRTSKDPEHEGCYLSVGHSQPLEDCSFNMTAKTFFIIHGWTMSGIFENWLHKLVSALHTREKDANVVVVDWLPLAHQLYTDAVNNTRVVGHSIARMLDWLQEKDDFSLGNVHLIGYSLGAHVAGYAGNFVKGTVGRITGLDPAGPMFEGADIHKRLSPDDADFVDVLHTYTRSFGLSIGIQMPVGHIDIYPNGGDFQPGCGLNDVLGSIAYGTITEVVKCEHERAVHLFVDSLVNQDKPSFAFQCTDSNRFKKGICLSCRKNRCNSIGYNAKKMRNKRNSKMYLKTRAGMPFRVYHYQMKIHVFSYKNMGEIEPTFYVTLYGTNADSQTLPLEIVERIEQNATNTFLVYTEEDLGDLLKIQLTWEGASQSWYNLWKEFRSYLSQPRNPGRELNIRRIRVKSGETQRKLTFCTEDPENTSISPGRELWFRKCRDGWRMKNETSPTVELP
Assay: EL inhibition assay (EL activity assay, fluorescent Bodipy-labelled phospholipid substrate)
Assay type: biochemical
Conditions: enzyme solution = conditioned medium of recombinant cell lines (CHO, HEK293); 37° C., 90 minutes; pH=7.4
Source text: EL is released as secretory protein in high concentration into cell culture medium (conditioned medium) by recombinant cell lines (CHO, HEK293). This is employed as enzyme solution after concentration.
The phospholipase-specific substrate 1,2-bis(4,4-difluoro-5,7-dimethyl-4-bora-3a,4a-diaza-s-indacene-3-undecanoyl)-sn-glycero-3-phosphocholine, (manufacturer Molecular Probes) is used to characterize the enzymatic activity of endothelial lipase and the effect of inhibitors. Hydrolysis of the A1 ester linkage of this phospholipid by the enzyme liberates a fatty acid labeled with the fluorescent dye Bodipy which can be detected after separation by thin-layer chromatography on an HPTLC plate (silica gel 60, Merck) or directly in the reaction vessel by measuring the fluorescence. The substrate solution is prepared by dissolving 100 μg of 1,2-bis(4,4-difluoro-5,7-dimethyl-4-bora-3a,4a-diaza-s-indacene-3-undecanoyl)-sn-glycero-3-phospho-choline (manufacturer Molecular Probes) in 100 μl of DMSO and taking it up in 2.4 mg of tripalmitin (Sigma) in 393 μl of chloroform which contains 20 mg/ml of DOP-choline (1,2-dioleoyl-sn-glycero-3-phosphocholine). 39.3 μl of this lipid mixture are transferred into a fresh reaction vessel. After evaporation of the solvent, the lipid mixture is dissolved in 4 ml of 200 mM TRIS-HCl, 150 mM sodium chloride, pH=7.4, by sonication twice. The subsequent enzymic reaction takes place at 37° C. for 90 minutes. For this purpose, 20 μl of the substrate solution are incubated with 2 μl of inhibitor of appropriate concentration (dissolved in 10% DMSO, 10% strength DMSO solution is used as control) and 2 μl of enzyme solution (conditioned medium). Then 4 μl of the assay mixture are loaded onto an HPTLC plate (silica gel 60, Merck), and the liberated fluorescent dye is separated for detection with an eluent (diethyl ether:petroleum benzine:acetic acid [78:22:1]). After evaporation of the eluent, the plate is read in a fluorescence scanner. An increased release of the fluorescent dye in the uninhibited reaction is to be observed as a measure of the enzymic activity.
The enzymatic activity is reduced as a function of the inhibitor concentration used, and the inhibitor concentration at which a half-maximum enzymic activity is observed is called IC50.

Question: With `CCCCCCNC(=O)N1C(=O)C2Cc3ccccc3CN2C1=O` (centres unmarked) [Example 24, 1,3-Dioxo-1,5,10,10a-tetrahydroimidazo[1,5-b]isoquinoline-2-hexylcarboxamide] as the molecule, how does the IC50 read?
Answer: 0.039 µM

Question: With `CCCCCCNC(=O)N1C(=O)CN(Cc2ccccc2)C1=O` [Example 1, 3-Benzyl-2,5-dioxoimidazolidine-1-hexylcarboxamide] as the molecule, how does the IC50 read?
Answer: 0.005 µM

Question: For `O=C1CN(Cc2ccccc2)C(=O)N1C(=O)NC1CCCc2ccccc21` (centres unmarked) [Example 5, 3-Benzyl-2,5-dioxoimidazolidine-1-(1,2,3,4-tetrahydronaphthalen-1-yl)carboxamide], which IC50 is on record?
Answer: 0.008 µM

Question: With `CCCCCCCNC(=O)N1C(=O)CN(Cc2ccccc2)C1=O` [Example 7, 3-Benzyl-2,5-dioxoimidazolidine-1-heptylcarboxamide] as the molecule, how does the IC50 read?
Answer: 0.083 µM

Question: With `CCCCCCNC(=O)N1C(=O)C2CCCCN2C1=O` (centres unmarked) [Example 23, 1,3-Dioxohexahydroimidazo[1,5-a]pyridine-2-hexylcarboxamide] as the molecule, how does the IC50 read?
Answer: 0.044 µM

Question: With `CCCCCCNC(=O)N1C(=O)N(C)C(C)(C)C1=O` [Example 9, 3,4,4-Trimethyl-2,5-dioxoimidazolidine-1-hexylcarboxamide] as the molecule, how does the IC50 read?
Answer: 0.037 µM

Question: Which IC50 does the source give for `O=C1CN(Cc2ccccc2)C(=O)N1C(=O)N[C@@H]1CCc2ccccc21` [Example 4, 3-Benzyl-2,5-dioxoimidazolidine-1-((R)-indan-1-yl)carboxamide] here?
Answer: 0.0005 µM

Question: `CCCCCCNC(=O)N1C(=O)CN(C)C1=O` [Example 8, 3-Methyl-2,5-dioxoimidazolidine-1-hexyl carboxamide] was tested. Which IC50 did it give?
Answer: 0.047 µM

Question: With `Cc1ccccc1CNC(=O)N1C(=O)C2Cc3ccccc3CN2C1=O` (centres unmarked) [Example 29, 1,3-Dioxo-1,5,10,10a-tetrahydroimidazo[1,5-b]isoquinoline-2-methylbenzyl-2-carboxamide] as the molecule, how does the IC50 read?
Answer: 0.143 µM

Question: With `O=C1CN(Cc2ccccc2)C(=O)N1C(=O)NCCc1cccs1` [Example 6, 3-Benzyl-2,5-dioxoimidazolidine-1-(2-thiophen-2-ylethyl)carboxamide] as the molecule, how does the IC50 read?
Answer: 0.143 µM

Question: With `Cc1ccccc1CNC(=O)N1C(=O)CN(Cc2ccccc2)C1=O` [Example 2, 3-Benzyl-2,5-dioxoimidazolidine-1-(2-methylbenzyl)carboxamide] as the molecule, how does the IC50 read?
Answer: 0.147 µM

Question: Which IC50 does the source give for `O=C(NC1CCCc2ccccc21)N1C(=O)C2Cc3ccccc3CN2C1=O` (centres unmarked) [Example 28, 1,3-Dioxo-1,5,10,10a-tetrahydroimidazo[1,5-b]isoquinoline-2-(1,2,3,4-tetra-hydronaphthalen-1-yl)carboxamide] here?
Answer: 0.059 µM

Question: How did the IC50 turn out when `CCCCCCCNC(=O)N1C(=O)CN(CCCC)C1=O` [Example 21, 3-Butyl-2,5-dioxoimidazolidine-1-heptylcarboxamide] was run?
Answer: 0.059 µM

Question: Which IC50 does the source give for `O=C1CN(Cc2ccccc2)C(=O)N1C(=O)N[C@H]1CCc2ccccc21` [Example 3, 3-Benzyl-2,5-dioxoimidazolidine-1-((S)-indan-1-yl)carboxamide] here?
Answer: 0.145 µM
